Assay results as given in patent publication US20050197338A1, “Substituted pyrazole urea compounds for the treatment of inflammation” (priority 2003, published 2005).

Target: T1, human IKK-2 (rhIKK-2 homodimer) (Homo sapiens, UniProt O14920)
T1 construct: FLAG (DYKDDDDKD) (C); made in house; host or cells: insect cells (baculovirus, pFastBac)
T1 sequence (O14920 1-756): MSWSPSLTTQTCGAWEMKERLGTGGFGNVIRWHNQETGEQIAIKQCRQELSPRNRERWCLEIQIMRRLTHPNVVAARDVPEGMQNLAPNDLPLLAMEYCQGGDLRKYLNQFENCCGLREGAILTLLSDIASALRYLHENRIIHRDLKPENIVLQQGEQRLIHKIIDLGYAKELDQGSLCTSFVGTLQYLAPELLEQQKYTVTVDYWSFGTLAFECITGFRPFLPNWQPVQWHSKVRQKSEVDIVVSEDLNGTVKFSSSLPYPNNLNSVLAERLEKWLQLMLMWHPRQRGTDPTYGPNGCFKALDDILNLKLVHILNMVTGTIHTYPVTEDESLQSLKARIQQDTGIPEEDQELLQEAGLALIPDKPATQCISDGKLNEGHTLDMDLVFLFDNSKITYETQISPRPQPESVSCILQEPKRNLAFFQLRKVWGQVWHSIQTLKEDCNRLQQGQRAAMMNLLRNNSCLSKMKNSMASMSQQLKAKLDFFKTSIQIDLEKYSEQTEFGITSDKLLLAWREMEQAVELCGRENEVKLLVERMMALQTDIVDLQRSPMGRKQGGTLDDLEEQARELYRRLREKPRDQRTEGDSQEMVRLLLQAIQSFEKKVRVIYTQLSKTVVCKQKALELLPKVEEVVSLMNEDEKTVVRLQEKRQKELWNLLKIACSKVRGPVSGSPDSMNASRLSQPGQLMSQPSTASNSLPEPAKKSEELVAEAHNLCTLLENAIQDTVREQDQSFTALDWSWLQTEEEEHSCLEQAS
Test: IKK-2 Resin Enzyme Assay (Human IKK-2 Enzyme Assay)
Assay type: biochemical
Conditions: human IKK-2, resin enzyme assay; read-out: IC50 (μM) hIKK-2
Text: Materials: SAM^2™96 Biotin capture plates were from Promega. Anti-FLAG affinity resin, FLAG-peptide, NP-40 (Nonidet P-40), BSA, ATP, ADP, AMP, LPS (E. coli serotype 0111:B4), and dithiothreitol were obtained from Sigma Chemicals. Antibodies specific for NEMO (IKK-γ) (FL-419), IKK-1 (H-744), IKK-2(H-470) and IκBa(C-21) were purchased from Santa Cruz Biotechnology. Ni-NTA resin was purchased from Qiagen. Peptides were purchased from American Peptide Company. Protease inhibitor cocktail tablets were from Boehringer Mannheim. Sephacryl S-300 column was from Pharmacia LKB Biotechnology. Centriprep-10 concentrators with a molecular weight cutoff of 10 kDa and membranes with molecular weight cut-off of 30 kDa were obtained from Amicon. [γ-^33P] ATP (2500 Ci/mmol) and [γ-^32P] ATP (6000 Ci/mmol) were purchased from Amersham. The other reagents used were of the highest grade commercially available.
Cloning and Expression: cDNAs of human IKK-1 and IKK-2 were amplified by reverse transcriptase-polymerase chain reaction from human placental RNA (Clonetech). hlKK-1 was subcloned into pFastBac HTa (Life Technologies) and expressed as N-terminal His6-tagged fusion protein. The hlKK-2 cDNA was amplified using a reverse oligonucleotide primer which incorporated the peptide sequence for a FLAG-epitope tag at the C-terminus of the IKK-2 coding region (DYKDDDDKD). The hlKK-2:FLAG cDNA was subcloned into the baculovirus vector pFastBac. The rhIKK-2 ([…]) mutant was constructed in the same vector used for wild type rhIKK-2 using a QuikChange™ mutagenesis kit (Stratagene). Viral stocks of each construct were used to infect insect cells grown in 40 L suspension culture. […] Cell lysates were stored at −80° C. until purification of the recombinant proteins was undertaken as described below.
Enzyme Isolation: All purification procedures were carried out at 4° C. unless otherwise noted. Buffers used are: buffer A: 20 mM Tris-HCl, pH 7.6, containing 50 mM NaCl, 20 mM NaF, 20 mM β-Glycerophosphate, 500 μM sodium orthovanadate, 2.5 mM metabisulfite, 5 mM benzamidine, 1 mM EDTA, 0.5 mM EGTA, 10% glycerol, 1 mM DTT, 1× Complete™ protease inhibitors; buffer B: same as buffer A, except 150 mM NaCl, and buffer C: same as buffer A, except 500 mM NaCl.
Isolation of rhIKK-2 homodimer: A 10-liter culture of baculovirus-expressing IKK-2 tagged with FLAG peptide was centrifuged and the cell pellet (MOI=0.1 and 1=72 h) was re-suspended in buffer A. These cells were microfluidized, and centrifuged at 100,000×g for 45 min. Supernatant was passed over a G-25 column equilibrated with Buffer A. Protein peak was collected and incubated with anti-FLAG affinity resin on a rotator overnight in buffer B. The resin was washed in batch with 10-15 bed volumes of buffer C. Washed resin was poured into a column and rhIKK-2 homodimer was eluted using 5 bed volumes of buffer B containing FLAG peptide. 5 mM DTT, 0.1% NP-40 and BSA (concentrated to 0.1% in final amount) was added to the eluted enzyme before concentrating in using an Amicon membrane with a molecular weight cut-off of 30 kDa. Enzyme was aliquoted and stored at −80° C.
IKK-2 Resin Enzyme Assay: IKK-2 kinase activity was measured using a biotinylated IκBα peptide (Gly-Leu-Lys-Lys-Glu-Arg-Leu-Leu-Asp-Asp-Arg-His-Asp-Ser32-Gly-Leu-Asp-Ser36-Met-Lys-Asp-Glu-Glu) (American Peptide Co.). 20 μL of the standard reaction mixture contained 5 μM biotinylated IκBα peptide, 0.1 μCi/reaction [γ-^33P] ATP (Amersham) (about 1×10^5 cpm), 1 μM ATP (Sigma), 1 mM DTT (Sigma), 2 mM MgCl2 (Sigma), 2 mM MnCl2 (Sigma), 10 mM NaF (Sigma), 25 mM Hepes (Sigma) buffer, pH 7.6 and 20 μL enzyme solution and 10 μL inhibitor in a final volume of 50 μL. After incubation at 25° C. for 30 min, 150 μL resin (Dowex anion-exchange resin AG1X8 200-400 mesh) in 900 mM formate, pH 3.0 was added to each well to stop the reaction. Resin was allowed to settle for 1 h and 50 μL of supernatant was removed to a Micolite-2 flat bottom plate (Dynex). […]

Compound | IC50
NC(=O)Nc1cn(-c2ccc(I)cc2Cl)nc1C(N)=O [Example 251, 4-[(aminocarbonyl)amino]-1-(2-chloro-4-iodophenyl)-1H-pyrazole-3-carboxamide] | 0.662 µM
CN(C)c1ccc(-c2cccc(-n3cc(NC(N)=O)c(C(N)=O)n3)c2)cc1 [Example 61] | 6.21 µM
NC(=O)Nc1cn(-c2cccc(-c3cccc(Cl)c3)c2)nc1C(N)=O [Example 347, 4-[(aminocarbonyl)amino]-1-(3′-chloro-1,1′-biphenyl-3-yl)-1H-pyrazole-3-carboxamide] | > 20 µM
NC(=O)Nc1cn(-c2ccc(Sc3cccc(Cl)c3)cc2)nc1C(N)=O [Example 289, 1-(1-(4-(3-chlorophenylthio)phenyl)-3-carbamoyl-1H-pyrazol-4-yl)urea] | 10.6 µM
NC(=O)Nc1cn(-c2cccc(-c3ccc(O)cc3)c2)nc1C(N)=O [Example 47, 4-[(aminocarbonyl)amino]-1-(4′-hydroxy-1,1 ′-biphenyl-3-yl)-1H-pyrazole-3-carboxamide] | 0.66 µM
COc1cccc(-c2ccc(-n3cc(NC(N)=O)c(C(N)=O)n3)cc2)c1F [Example 120, 4-[(aminooarbonyl)amino]-1-(2′-fluoro-3′-methoxy-1,1′-biphenyl-4-yl)-1H-pyrazole-3-carboxamide] | 0.972 µM
NC(=O)Nc1cn(-c2cccc(-c3ccc(C(F)(F)F)cc3)c2)nc1C(N)=O [Example 368, 4-[(aminocarbonyl)amino]-1-[4′-(trifluoromethyl)-1,1′-biphenyl-3-yl]-1H-pyrazole-3-carboxamide] | > 20 µM
CCOc1cc(-n2cc(NC(N)=O)c(C(N)=O)n2)ccc1-c1cccc(O)c1 [Example 230, 4-[(aminocarbonyl)amino]-1-(2-ethoxy-3′-hydroxy-1,1′-biphenyl-4-yl)-1H-pyrazole-3-carboxamide] | 2.02 µM
CSc1cccc(-c2cccc(-n3cc(NC(N)=O)c(C(N)=O)n3)c2)c1 [Example 357, 4-[(aminocarbonyl)amino]-1-[3′-(methylthio)-1,1′-biphenyl-3-yl]-1H-pyrazole-3-carboxamide] | > 20 µM
Cc1cc(-c2ccc(-n3cc(NC(N)=O)c(C(N)=O)n3)cc2)ccc1F [Example 109, 4-[(aminocarbonyl)amino]-1-(4′-fluoro-3′-methyl-1,1′-biphenyl-4-yl)-1H-pyrazole-3-carboxamide] | 5.52 µM
NC(=O)Nc1cn(-c2ccc(-c3ccc(C(=O)NCc4ccccc4F)c(F)c3)cc2)nc1C(N)=O [Example 157, 4-[(aminocarbonyl)amino]-1-(3′-fluoro-4′-{[(2-fluorobenzyl)amino]carbonyl}-1,1′-biphenyl-4-yl)-1H-pyrazole-3-carboxamide] | 8.08 µM
NC(=O)Nc1cn(-c2ccc(F)c(F)c2)nc1C(N)=O [Example 218, 4-[(aminocarbonyl)amino]-1-(3,4-difluorophenyl)-1H-pyrazole-3-carboxamide] | 1.31 µM
NC(=O)Nc1cn(-c2cccc(-c3cccc(C(F)(F)F)c3)c2)nc1C(N)=O [Example 367, 4-[(aminocarbonyl)amino]-1-[3′-(trifluoromethyl)-1,1′-biphenyl-3-yl]-1H-pyrazole-3-carboxamide] | > 20 µM
N#CCOc1cccc(-c2ccc(-n3cc(NC(N)=O)c(C(N)=O)n3)cc2)c1 [Example 166, 4-[(aminocarbonyl)amino]-1-[3′-(cyanomethoxy)-1,1′-biphenyl-4-yl]-1H-pyrazole-3-carboxamide] | 0.38 µM
N#CCc1ccc(-c2cccc(-n3cc(NC(N)=O)c(C(N)=O)n3)c2)cc1 [Example 44, 4-[(aminocarbonyl)amino]-1-[4′-(cyanomethyl)-1,1′-biphenyl-3-yl]-1H-pyrazole-3-carboxamide] | 2.08 µM
NCc1cccc(-c2cccc(-n3cc(NC(N)=O)c(C(N)=O)n3)c2)c1 [Example 78, 4-[(aminocarbonyl)amino]-1-[3′-(aminomethyl)-1,1′-biphenyl-3-yl]-1H-pyrazole-3-carboxamide] | 0.81 µM
COC(=O)c1ccc(-c2ccc(-n3cc(NC(N)=O)c(C(N)=O)n3)cc2)c(N)c1 [Example 29, methyl 2-amino-4′-{3-(aminocarbonyl)-4-[(aminocarbonyl)amino]-1H-pyrazol-1-yl}-1,1′-biphenyl-4-carboxylate] | 0.53 µM
NC(=O)Nc1cn(-c2ccc(-c3ccc(O)cc3)cc2)nc1C(N)=O [Example 36, 4-[(aminocarbonyl)amino]-1-(4′-hydroxy-1,1′-biphenyl-4-yl)-1H-pyrazole-3-carboxamide] | 1.63 µM
NC(=O)Nc1cn(-c2cccc(-c3cccc(O)c3)c2)nc1C(N)=O [Example 72, 4-[(aminocarbonyl)amino]-1-(3′-hydroxy-1,1′-biphenyl-3-yl)-1H-pyrazole-3-carboxamide] | 0.44 µM
NC(=O)Nc1cn(-c2cccc(-c3cccc(C(=O)O)c3)c2)nc1C(N)=O [Example 73, 3′-{3-(aminocarbonyl)-4-[(aminocarbonyl)amino]-1H-pyrazol-1-yl}-1,1′-biphenyl-3-carboxylic acid] | 8.03 µM
Cc1ccc(-c2cccc(-n3cc(NC(N)=O)c(C(N)=O)n3)c2)cc1N [Example 77, 4-[(aminocarbonyl)amino]-1-(3′-amino-4′-methyl-1,1′-biphenyl-3-yl)-1H-pyrazole-3-carboxamide] | 0.8 µM
NC(=O)Nc1cn(-c2ccc(-c3ccccc3O)c(F)c2)nc1C(N)=O [Example 261, 4-[(aminocarbonyl)amino]-1-(2-fluoro-2′-hydroxy-1,1′-biphenyl-4-yl)-1H-pyrazole-3-carboxamide] | 1.18 µM
NC(=O)Nc1nn(-c2ccc(-c3ccc(C(F)(F)F)cc3)cc2)cc1C(N)=O [Example 132] | 18.8 µM
NC(=O)Nc1cn(-c2cccc(-c3cccc(C(=O)NC4CC4)c3)c2)nc1C(N)=O [Example 81] | 1.65 µM
N#CCOc1ccccc1-c1ccc(-n2cc(NC(N)=O)c(C(N)=O)n2)cc1Cl [Example 224, 4-[(aminocarbonyl)amino]-1-[2-chloro-2′-(cyanomethoxy)-1,1′-biphenyl-4-yl]-1H-pyrazole-3-carboxamide] | 0.327 µM
